Patent publication US20140342392A1, “OPTIMIZED INSECT-BASED EX VIVO MODEL FOR TESTING BLOOD-BRAIN BARRIER PENETRATION AND METHOD FOR EXPOSING INSECT BRAIN TO CHEMICAL COMPOUNDS” (ENTOMOPHARM ApS, priority 2011, published 2014)

Tested on: locust brain (blood-brain barrier)
Settings: co-treatment with verapamil, brain removed from the cuticula, also after removal of the neural lamella
Method: 1. […] The insects may be obtained from local suppliers or bred in house. The grasshoppers were reared under crowded conditions at 28° C. and a 12:12 dark:light photocycle and fed fresh grass and bran. Before experiments the grasshoppers were fed ecologically cultivated wheat for two weeks. Animals used are adult males (in some experiments females) between two to four weeks after adult emergence. […] After various times of exposure the preparation is washed in saline and the brain is dissected under microscope with fine forceps. The neural lamella surrounding the brain is removed in saline and the brain is then […] in saline, centrifuged and the supernatant frozen until analyses. Drug concentration is analysed by HPLC, LC/MSMS or other methods.

Question: For `C=C[C@H]1C[N@@]2CC[C@H]1C[C@@H]2[C@@H](O)c1ccnc2ccc(OC)cc12` [quinidine], which “brain concentration with versus without Pgp inhibitor (FIG. 2)” value is on record?
Answer: higher after co-treatment with the Pgp inhibitor verapamil
